Laboratory results taken from patent US12043644B2, “Benzimidazole derivatives, preparation method thereof and use thereof as anti-cancer agent or anti-virus agent comprising the same” (BIOMETRIX TECHNOLOGY INC, priority 2020, dated 2024).

Assays:
[1] = test system: normal lung cell line MRC-5 and the normal colon CCD-18Co cell line; assay: Toxicity test in normal cell line (WST-8 cell viability); assay type: cell-based; conditions: grade evaluated in comparison with doxorubicin, MRC-5 and CCD-18Co, 0-100 μm, 7 concentrations, 72 hours
Procedure: The normal lung cell line MRC-5 and the normal colon CCD-18Co cell line were furnished from Korea Cell Line Bank (KCLB, Seoul, Korea) and cultured in culture medium. In a humidified cell culture incubator containing 5% CO2 at 37° C. using DMEM, 10% culture flask, fetal bovine serum (FBS), 0.1 mM MEM non-essential amino acids (NEAA), 2 mM L-glutamine, and 1% penicillin-streptomycin were treated with trypsin every 2-3 days according to the guidelines provided by KCLB, and the cells were sub-cultured. The culture was cultured until it reached 80-90% confluence, and the cells were continuously transferred to a culture flask for a cancer cell line growth inhibition experiment. Normal cell lines (MRC-5 and CCD-18Co) were seeded in about 10000 cells per well in a 96-well plate. After 24 hours, the three compounds shown in Table 1 below were added to each well at 7 concentrations, and incubated for 72 hours. The cell viability and analysis in the normal cell line were performed in the same manner as in Test Example 1, and the results of the toxicity test (72 hours) in the normal cell line are shown in FIG. 4.

[2] = test system: human lung cancer cell line A549, cervical cancer cell line Hela, and colorectal cancer cell line HT-29; assay: Cancer cell line growth inhibition test (WST-8 cell viability); assay type: cell-based; conditions: grade evaluated in comparison with doxorubicin, 0-100 μm, 7 concentrations, incubated for 72 hours
Procedure: Human lung cancer cell line A549, cervical cancer cell line Hela, and colorectal cancer cell line HT-29 were furnished from Korea Cell Line Bank (KCLB, Seoul, Korea) and cultured in culture medium. In a humidified cell culture incubator containing 5% CO2 at 37° C. using DMEM, 10% culture flask, fetal bovine serum (FBS), 0.1 mM MEM non-essential amino acids (NEAA), 2 mM L-glutamine, and 1% penicillin-streptomycin were treated with trypsin every 2-3 days according to the guidelines provided by KCLB, and the cells were sub-cultured. The culture was cultured until it reached 80-90% confluence, and the cells were continuously transferred to a culture flask for a cancer cell line growth inhibition experiment. Cancer cell lines to be tested (human lung cancer cell line A549, cervical cancer cell line Hela, and colorectal cancer cell line HT-29) were seeded in about 10000 cells per well in a 96-well plate. […] After incubation, the medium was discarded and the cell viability was measured in each well using a WST-8 cell viability assay kit (Quanti-Max™, BIOMAX) according to the procedure instructed by the manufacturer. The analysis utilized the principle that the dehydrogenase in living cells decomposes tetrazolium salts to produce formazan, through which living cells were quantitatively evaluated. […]

Compound: Cl.Nc1nc2ccc(Sc3ccccc3)cc2[nH]1 [Aminophenbendazole, reference compound]
- Normal cell line growth inhibition test [1]: A A A
- Normal cell line growth inhibition test ([1]; listed as aminophenbendazole): AAA

Compound: OC[C@H]1OC(Nc2nc3ccc(Sc4ccccc4)cc3[nH]2)[C@H](O)[C@@H](O)[C@@H]1O (stereo partly shown) [Phenhendazole-glucose conjugate, 6-(phenylthio)-1H-benzoimidazol-2-aminoglucose]
- Cancer cell line growth inhibition test [2]: A A A
- Cancer cell line growth inhibition test ([2]; listed as phenbendazole-glucose conjugate): AAA
